According to patent US20260125360A1, “HERBICIDAL IMIDAZOLE COMPOUNDS” (SYNGENTA CROP PROTECTION AG, priority 2022, published 2026):

How the values were obtained:
Assay type in all cases: in vivo
Conditions in all cases: 250 g/ha, evaluated after 13 days
[1] = test system: Amaranthus palmeri (AMAPA); test: Post-emergence herbicide glasshouse test
How it was run: (§1)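 Damage rated 13 days after spraying on a five-point scale (1=0–20% … 5=81–100%). Compound applied at 250 g/ha by default, as aqueous spray from acetone/water 50:50 plus 0.5% Tween 20, to pots one day post-sowing (pre) or after 8 days of growth (post). Plants kept at 24/16 °C, 14 h light, 65% humidity, watered twice daily.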

[2] = test system: Amaranthus retoflexus (AMARE); test: Post-emergence herbicide glasshouse test
How it was run: as §1

[3] = test system: Echinochloa crus-galli (ECHCG); test: Post-emergence herbicide glasshouse test
How it was run: as §1

[4] = test system: Ipomoea hederacea (IPOHE); test: Post-emergence herbicide glasshouse test
How it was run: as §1

[5] = test system: Amaranthus palmeri (AMAPA); test: Pre-emergence herbicide glasshouse test
How it was run: as §1

[6] = test system: Amaranthus retoflexus (AMARE); test: Pre-emergence herbicide glasshouse test
How it was run: as §1

[7] = test system: Echinochloa crus-galli (ECHCG); test: Pre-emergence herbicide glasshouse test
How it was run: as §1

[8] = test system: Ipomoea hederacea (IPOHE); test: Pre-emergence herbicide glasshouse test
How it was run: as §1

SMILES | percentage damage caused to the plant, AMAPA (five-point scale) [1] | percentage damage caused to the plant, AMARE (five-point scale) [2] | percentage damage caused to the plant, ECHCG (five-point scale) [3] | percentage damage caused to the plant, IPOHE (five-point scale) [4] | percentage damage caused to the plant, AMAPA (five-point scale) [5] | percentage damage caused to the plant, AMARE (five-point scale) [6] | percentage damage caused to the plant, ECHCG (five-point scale) [7] | percentage damage caused to the plant, IPOHE (five-point scale) [8]
Cc1cc(Cn2cc(C#N)nc2-c2cnc(Cl)c(F)c2)no1 [Compound 1.185] | 4 (4=61-80%) | 4 (4=61-80%) | 1 (1=0-20%) | 3 (3=41-60%) | 5 (5=81-100%) | 5 (5=81-100%) | 3 (3=41-60%) | 4 (4=61-80%)
CC(C)c1nc(Cn2cc(C(F)(F)F)nc2-c2ccc(Cl)nc2)no1 [Compound 1.126] | 1 (1=0-20%) | 1 (1=0-20%) | 1 (1=0-20%) | 1 (1=0-20%) | 1 (1=0-20%) | 1 (1=0-20%) | 1 (1=0-20%) | 1 (1=0-20%)
Cc1noc(Cn2cc(C(F)(F)F)nc2-c2ccc(Cl)nc2)n1 [Compound 1.101] | 4 (4=61-80%) | 4 (4=61-80%) | 1 (1=0-20%) | 5 (5=81-100%) | 5 (5=81-100%) | 5 (5=81-100%) | 1 (1=0-20%) | 5 (5=81-100%)
FC(F)(F)c1ccc(-c2nc(C(F)(F)F)cn2Cc2ccno2)cc1 [Compound 1.009] | 1 (1=0-20%) | 2 (2=21-40%) | 1 (1=0-20%) | 3 (3=41-60%) | 1 (1=0-20%) | 1 (1=0-20%) | 1 (1=0-20%) | 1 (1=0-20%)
Cc1nc(Cn2cc(C(F)(F)F)nc2-c2ccc(C(F)(F)F)cc2)cs1 [Compound 1.010] | 1 (1=0-20%) | 2 (2=21-40%) | 1 (1=0-20%) | 3 (3=41-60%) | 2 (2=21-40%) | 5 (5=81-100%) | 1 (1=0-20%) | 2 (2=21-40%)
Cc1noc(Cn2cc(C(F)(F)F)nc2-c2cnc(Cl)c(F)c2)n1 [Compound 1.166] | 4 (4=61-80%) | 4 (4=61-80%) | 1 (1=0-20%) | 2 (2=21-40%) | 5 (5=81-100%) | 5 (5=81-100%) | 1 (1=0-20%) | 5 (5=81-100%)
Fc1cc(-c2nc(C(F)(F)F)cn2Cc2cc(C3CC3)on2)cnc1Cl [Compound 1.028] | 3 (3=41-60%) | 4 (4=61-80%) | 1 (1=0-20%) | 1 (1=0-20%) | 5 (5=81-100%) | 5 (5=81-100%) | 1 (1=0-20%) | 4 (4=61-80%)
Cn1nc(Cn2cc(C(F)(F)F)nc2-c2ccc(Cl)nc2)cc1Cl [Compound 1.084] | 4 (4=61-80%) | 4 (4=61-80%) | 1 (1=0-20%) | 4 (4=61-80%) | 5 (5=81-100%) | 5 (5=81-100%) | 3 (3=41-60%) | 5 (5=81-100%)
Cc1cnc(Cn2cc(C(F)(F)F)nc2-c2ccc(Cl)nc2)s1 [Compound 1.034] | 5 (5=81-100%) | 5 (5=81-100%) | 5 (5=81-100%) | 4 (4=61-80%) | 5 (5=81-100%) | 5 (5=81-100%) | 5 (5=81-100%) | 5 (5=81-100%)
FC(F)(F)c1cn(Cc2ccc(Cl)s2)c(-c2ccc(Cl)nc2)n1 [Compound 1.117] | 5 (5=81-100%) | 5 (5=81-100%) | 1 (1=0-20%) | 2 (2=21-40%) | 5 (5=81-100%) | 5 (5=81-100%) | 1 (1=0-20%) | 1 (1=0-20%)
Cc1nc(Cn2cc(C(F)(F)F)nc2-c2ccc(Cl)nc2)no1 [Compound 1.097] | 5 (5=81-100%) | 5 (5=81-100%) | 5 (5=81-100%) | 5 (5=81-100%) | 5 (5=81-100%) | 5 (5=81-100%) | 5 (5=81-100%) | 5 (5=81-100%)
CC(C)(C)c1csc(Cn2cc(C(F)(F)F)nc2-c2ccc(Cl)nc2)n1 [Compound 1.137] | 1 (1=0-20%) | 1 (1=0-20%) | 1 (1=0-20%) | 1 (1=0-20%) | 1 (1=0-20%) | 1 (1=0-20%) | 1 (1=0-20%) | 1 (1=0-20%)
Cn1cnc(Cn2cc(C#N)nc2-c2cnc(Cl)c(F)c2)n1 [Compound 1.182] | 4 (4=61-80%) | 5 (5=81-100%) | 3 (3=41-60%) | 3 (3=41-60%) | 5 (5=81-100%) | 5 (5=81-100%) | 4 (4=61-80%) | 5 (5=81-100%)
Cc1cc(Cn2cc(C(F)F)nc2-c2cnc(Cl)c(F)c2)no1 [Compound 1.024] | 5 (5=81-100%) | 5 (5=81-100%) | 2 (2=21-40%) | 4 (4=61-80%) | 5 (5=81-100%) | 5 (5=81-100%) | 4 (4=61-80%) | 5 (5=81-100%)
Cc1noc(Cn2cc(C(F)(F)F)nc2-c2ccc(C(F)(F)F)cc2)n1 [Compound 1.008] | 4 (4=61-80%) | 4 (4=61-80%) | 2 (2=21-40%) | 4 (4=61-80%) | 5 (5=81-100%) | 5 (5=81-100%) | 1 (1=0-20%) | 3 (3=41-60%)
Cn1ccc(Cn2cc(C(F)(F)F)nc2-c2cnc(F)c(Cl)c2)n1 [Compound 1.153] | 5 (5=81-100%) | 5 (5=81-100%) | 5 (5=81-100%) | 4 (4=61-80%) | 5 (5=81-100%) | 5 (5=81-100%) | 5 (5=81-100%) | 5 (5=81-100%)
